In patent US20100168054A1, “Functionalized Beta 1,6 Glucosamine Disaccharides and Process for Their Preparation” (OM PHARMA, priority 2006, published 2010):

Legend:
[1] = system: human peripheral blood mononuclear cells (PBMC); experiment: IL-6 secretion by human PBMC (ELISA); format: cell-based; settings: for IL6: 24 h
Procedure: (§1) Peripheral blood from healthy donors (Centre de transfusion, Hôpital Universitaire, Geneva) was centrifuged to get the buffy coat. The buffy coat was mixed with Hanks' balanced saline solution (HBSS, Sigma, Buchs, Switzerland), layered over Ficoll Paque Plus (Amersham Pharmacia) to 1.077 g/mL and centrifuged (2800 rpm, 20° C., 25 min). Cells harvested from the interphase were washed twice in HBSS at 800 rpm for 15 min at room temperature and the pelleted cells were resuspended in HBSS. The cell counts were performed using a Neubauer cell. All cell cultures were performed in RPMI-1640 medium supplemented with penicillin (100 U/mL), streptomycin (100 μg/mL), L-glutamine (2 mmol/L) and 10% fetal calf serum (FCS), all obtained from Sigma. For in vitro stimulation, the cells were cultured at a concentration of 1×10^6 viable cells/well.
(§2) PBMC were incubated at 37° C. and under 5% CO2 atmosphere with the controls (see below) and with the products of the invention at 1, 5, and 20 μg/mL for IL-6, and at 0.2, 2, and 20 μg/mL for TNF-α secretion. Medium: RPMI alone.
(§3) The surpernatants of the cultures were harvested after 24 h and the concentration of IL-6 and TNF-α were measured by an enzyme-linked immunosorbent assay (ELISA) (Human IL-6 and TNF-α ELISA Set, BD OptEIA, San Diego, USA), according to the manufacturer instructions. The detection limits were 10 and 8 pg/mL respectively.
PBMC are incubated at 37° C. and under 5% CO2 atmosphere with the products of the invention.
The supernatants of the cultures are harvested after 24 h and the concentration of IL-6 was measured by an enzyme-linked immunosorbent assay (ELISA) (Human IL-6 ELISA Set, BD OptEIA, San Diego, USA), according to the manufacturer instructions. The detection limit was 10 pg/mL.

[2] = system: THP1-Blue cells (express naturally both TLR2 and TLR4); experiment: THP1-Blue NF-κB/AP-1-inducible SEAP reporter; format: cell-based, human; settings: for Optical density read at 625 nm, mean of duplicates: 48 h
Procedure: A first series of experiment was performed on THP-1 cells, which express naturally both TLR2 and TLR4. THP-1 cells are human peripheral blood monocytic cells. Monocytes play a key role in innate immunity and express most TLRs at various levels. As for the primary cells, THP-1 cells activate NF-κB and other transcription factors in response to TLR ligands
To facilitate analysis of TLR response in monocytes, InvivoGen (Toulouse, France) provides THP-1 clones stably transfected with an NF-κB-inducible reporter system, called THP1-Blue™. THP-1 Blue cells were stably transfected with a reporter plasmid expressing a secreted embryonic alkaline phosphatase (SEAP) gene under the control of a promoter inducible by several transcription factors such as NF-κB and AP-1. Upon TLR stimulation, THP1-Blue™ cells activate transcription factors and subsequently the secretion of SEAP which is easily detectable when using QUANTI-Blue\u2122a medium that turns purple/blue in the presence of SEAP.
The cells were stimulated with the controls and compounds of the invention according to manufacturer's instructions. Results: Increased OD at 625 Nm after 48 Hours: The results for the controls (negative=LPS K12CD25 ultrapure, a TLR4 agonist; and PAM3CSK4=positive, a TLR2 agonist) are provided in the table below. The results (expressed as OD of arbitrary units) show the mean values (from duplicate measures) of Optical density read at 625 nm, 48 h after stimulation at 37° C. with the controls (up to 1000 ng/ml): […]

[3] = system: human peripheral blood mononuclear cells (PBMC); experiment: TNF-α secretion by human PBMC (ELISA); format: cell-based; settings: for TNF-α: 24 h
Procedure: as §1, §2, §3

[4] = target: T1, TLR2 (Homo sapiens, UniProt O60603); experiment: HEK-TLR2 IL-8 secretion; format: cell-based; settings: for IL-8 secretion, mean: 24 h
T1 construct: host or cells: HEK293
Excerpt: The HEK293 cell line was chosen for its null or low basal expression of the TLR genes. These cells enable efficient monitoring of TLR activity using ELISA analysis such as IL-8 titration or reporter-based systems that monitor TLR-induced NF-κB activation. HEK-TLR2 cells (Invivogen, Toulouse, France) are engineered HEK293 cells stably transfected with multiple genes from the TLR2 pathway that include TLR2 and genes participating in the recognition or involved in the signaling cascade. These cells secrete IL-8 after TLR2 stimulation. The experiments were performed according to manufacturers' instructions. Briefly, 2×10^4 cells/well (200 ul RPMI) are incubated at 37° C. during 3 days (5% CO2). The medium is removed, and 90 ul RPMi+5% FCS is added to the wells Then the agonists and controls are added (10 ul/well). The cells return to the incubator for 24 hours. The supernatants are collected and the IL-8 ELISA is performed according to manufacturer's instructions

T1 sequence (O60603 21-784): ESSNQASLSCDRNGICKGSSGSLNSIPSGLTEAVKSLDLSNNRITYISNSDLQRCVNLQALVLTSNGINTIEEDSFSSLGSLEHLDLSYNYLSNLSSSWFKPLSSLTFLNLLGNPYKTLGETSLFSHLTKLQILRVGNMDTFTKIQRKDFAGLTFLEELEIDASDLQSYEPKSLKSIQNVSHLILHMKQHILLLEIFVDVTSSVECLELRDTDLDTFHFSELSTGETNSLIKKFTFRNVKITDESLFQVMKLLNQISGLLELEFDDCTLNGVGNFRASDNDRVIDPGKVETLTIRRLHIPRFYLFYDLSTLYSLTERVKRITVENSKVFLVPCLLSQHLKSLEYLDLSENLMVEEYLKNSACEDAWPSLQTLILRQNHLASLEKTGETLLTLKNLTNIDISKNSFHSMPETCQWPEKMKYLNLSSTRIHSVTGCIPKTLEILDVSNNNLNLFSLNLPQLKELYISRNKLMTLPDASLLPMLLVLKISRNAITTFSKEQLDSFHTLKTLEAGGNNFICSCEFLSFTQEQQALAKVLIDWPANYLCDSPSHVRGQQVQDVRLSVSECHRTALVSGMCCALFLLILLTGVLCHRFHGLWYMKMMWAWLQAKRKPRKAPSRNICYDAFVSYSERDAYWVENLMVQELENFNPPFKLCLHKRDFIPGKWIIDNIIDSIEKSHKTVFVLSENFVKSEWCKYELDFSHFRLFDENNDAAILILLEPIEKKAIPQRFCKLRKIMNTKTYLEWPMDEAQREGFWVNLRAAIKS

IL-8 secretion, mean ([4]; 14 ng/ml): 0.19 pg/mL | IL-8 secretion, mean ([4]; 41 ng/ml): 0.20 pg/mL | IL-8 secretion, mean ([4]; 124 ng/ml): 0.24 pg/mL | IL-8 secretion, mean ([4]; 370 ng/ml): 0.25 pg/mL | IL-8 secretion, mean ([4]; 1111 ng/ml): 0.39 pg/mL | IL-8 secretion, mean ([4]; 3333 ng/ml): 0.88 pg/mL | IL-8 secretion, mean ([4]; 10000 ng/ml): 2.02 pg/mL | activation of IL-8 secretion via TLR2 (in words) ([4]; HEK-TLR2): able to activate IL-8 secretion via TLR2
SMILES: CCCCCCCCCCCC(=O)O[C@H](CCCCCCCCCCC)CC(=O)N[C@H]1[C@H](OC[C@H]2O[C@H](OCCC)[C@H](NC(=O)C[C@H](O)CCCCCCCCCCC)[C@@H](O)[C@@H]2O)O[C@H](CO)[C@@H](OP(=O)(O)O)[C@@H]1O [compound 17, Propyl-2-Deoxy-6-O-[2-deoxy-4-O-(dihydroxyphosphoryl)-2-[(R)-3-dodecanoyloxytetradecanoylamino]-β-D-glucopyranosyl]-2-[(R)-3-hydroxytetradecanoylamino]-α-D-glucopyranoside]
IL6 ([1]; 1 μg/ml): 171.6 pg/mL | IL6 ([1]; 5 μg/ml): 447.6 pg/mL | IL6 ([1]; 20 μg/ml): 752.4 pg/mL | IL-6 secretion (in words) ([1]; 1, 5, 20 μg/ml): able to induce IL-6 secretion | activation of THP-1 cells (in words) [2]: good activators of THP-1 cells | Optical density read at 625 nm, mean of duplicates ([2]; 14 ng/ml): 0.13 OD | Optical density read at 625 nm, mean of duplicates ([2]; 41 ng/ml): 0.15 OD | Optical density read at 625 nm, mean of duplicates ([2]; 124 ng/ml): 0.19 OD | Optical density read at 625 nm, mean of duplicates ([2]; 370 ng/ml): 0.36 OD | Optical density read at 625 nm, mean of duplicates ([2]; 1111 ng/ml): 0.74 OD | Optical density read at 625 nm, mean of duplicates ([2]; 3333 ng/ml): 1.02 OD | Optical density read at 625 nm, mean of duplicates ([2]; 10000 ng/ml): 1.15 OD | TNF-α ([3]; 0.2 μg/ml): 46 pg/mL | TNF-α ([3]; 2 μg/ml): 474 pg/mL | TNF-α ([3]; 20 μg/ml): 2114 pg/mL | TNF-α induction (in words) ([3]; 0.2, 2, 20 μg/ml): induced high levels of TNF-α
